In the supplement of paper PMC7244745:
Where a name gives a salt, the structure may show the parent alone. ± gives the uncertainty stated by the source.

Tests used:
[1] = test system: Klebsiella pneumoniae ATCC 13882; experiment: rate of pH (A557-A630) increase, Gompertz fit (10^-4 s-1); higher = faster ureolysis; extreme values may be limits of the assay
Method: (§1)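 Klebsiella pneumoniae ATCC 13882 (start OD600 0.05) grown in M9U medium with 40 mM urea and phenol red plus inhibitor, in triplicate in 96-well plates. A557 and OD630 were read every 15 min for 24 h. Ureolysis was followed as the pH-related A557-A630: onset time, Gompertz-fit rate and final value. Growth was followed as OD630.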

[2] = test system: Klebsiella pneumoniae ATCC 13882; experiment: final OD630 (growth) after 24 h; higher = more bacterial growth; extreme values may be limits of the assay
Method: as §1

[3] = test system: Klebsiella pneumoniae ATCC 13882; experiment: onset of ureolytic pH increase; higher = more delayed ureolysis (inhibition)
Method: as §1

[4] = test system: Klebsiella pneumoniae ATCC 13882; experiment: final pH-related absorbance (A557-A630) after 24 h (absorbance units); higher = more ureolysis; extreme values may be limits of the assay
Method: as §1

Row | Compound | rate of pH ([1]; 0.1 mM) | rate of pH ([1]; 1 mM) | rate of pH ([1]; 10 mM) | final OD630 ([2]; 0.1 mM) | final OD630 ([2]; 1 mM) | final OD630 ([2]; 10 mM) | onset of ureolytic pH increase ([3]; 0.1 mM) [h] | onset of ureolytic pH increase ([3]; 1 mM) [h] | onset of ureolytic pH increase ([3]; 10 mM) [h] | final pH-related absorbance ([4]; 0.1 mM) | final pH-related absorbance ([4]; 1 mM) | final pH-related absorbance ([4]; 10 mM) | further results
1 | CCOC(=O)[C@@H](N)CS [L-cysteine ethyl ester hydrochloride] | 2.06 ± 0.11 | 0 | 0 | 0.547 ± 0.018 | 0.299 ± 0.003 | 0.422 ± 0.045 | 7.359 ± 0.0667 | > 15 | > 15 | 0.394 ± 0.031 | 0 | 0 | –
2 | COC(=O)[C@@H](N)CS [L-cysteine methyl ester hydrochloride] | 1.55 ± 0.16 | 0 | – | 0.457 ± 0.0075 | 0.261 ± 0.0026 | – | 9.9208 ± 0.00583 | > 15 | – | 0.566 ± 0.001 | 0 | – | –
3 | N[C@@H](CS)C(=O)O [L-cysteine] | 1.656 ± 0.0059 | 0 | 0 | 0.431 ± 0.0025 | 0.334 ± 0.008 | 0.289 ± 0.01 | 15.87 ± 0.03 | > 25 | > 25 | 0.225 ± 0.0018 | 0 | 0 | –
4 | NC(=O)CC[C@H](N)C(=O)O [L-glutamine] | – | – | – | – | – | – | – | – | – | – | – | – | rate of pH ([1]; 0.009 mM): 1.675 ± 0.015; rate of pH ([1]; 0.091 mM): 1.74 ± 0.052; rate of pH ([1]; 9.06 mM): 1.78 ± 0.018; final OD630 ([2]; 0.009 mM): 0.515 ± 0.01; final OD630 ([2]; 0.091 mM): 0.549 ± 0.014; final OD630 ([2]; 9.06 mM): 0.531 ± 0.0093; onset of ureolytic pH increase ([3]; 0.009 mM): 9.446 ± 0.0567 h; onset of ureolytic pH increase ([3]; 0.091 mM): 9.264 ± 0.03 h; onset of ureolytic pH increase ([3]; 9.06 mM): 9.369 ± 0.065 h; final pH-related absorbance ([4]; 0.009 mM): 0.223 ± 0.0054; final pH-related absorbance ([4]; 0.091 mM): 0.219 ± 0.005; final pH-related absorbance ([4]; 9.06 mM): 0.222 ± 0.0029
5 | N[C@@H](Cc1c[nH]cn1)C(=O)O [L-histidine] | 3.03 ± 0.049 | 3.09 ± 0.27 | 1.12 ± 0.078 | 0.709 ± 0.008 | 0.706 ± 0.007 | 0.715 ± 0.026 | 6.141 ± 0.06 | 6.853 ± 0.0217 | 9.8 ± 0.0983 | 0.485 ± 0.022 | 0.506 ± 0.007 | 0.63 ± 0.016 | –
6 | O.O.O.O.O.O.O.O=S(=O)([O-])[O-].[Mg+2] [Magnesium sulfate] | 2.16 ± 0.017 | 2.15 ± 0.021 | 2.01 ± 0.046 | 0.553 ± 0.034 | 0.508 ± 0.0073 | 0.521 ± 0.0037 | 9.469 ± 0.0767 | 9.51 ± 0.118 | 9.25 ± 0.2 | 0.151 ± 0.0021 | 0.153 ± 0.0018 | 0.177 ± 0.0039 | –
7 | CNC(N)=O [Methylurea] | 1.54 ± 0.021 | 1.531 ± 0.014 | 1.551 ± 0.0041 | 0.418 ± 0.0043 | 0.427 ± 0.0012 | 0.419 ± 0.0011 | 10.25 ± 0.0267 | 10.25 ± 0.04 | 10.38 ± 0.016 | 0.17 ± 0.0022 | 0.174 ± 0.001 | 0.173 ± 0.001 | –
8 | NC(=O)CN(CC(=O)O)CC(=O)O [N-(2-acetamido)iminodiacetic acid] | – | – | – | – | – | – | – | – | – | – | – | – | rate of pH ([1]; 0.0035 mM): 1.791 ± 0.016; rate of pH ([1]; 0.0351 mM): 1.805 ± 0.018; rate of pH ([1]; 0.351 mM): 1.77 ± 0.053; final OD630 ([2]; 0.0035 mM): 0.548 ± 0.048; final OD630 ([2]; 0.0351 mM): 0.519 ± 0.0043; final OD630 ([2]; 0.351 mM): 0.511 ± 0.0089; onset of ureolytic pH increase ([3]; 0.0035 mM): 9.5 ± 0.138 h; onset of ureolytic pH increase ([3]; 0.0351 mM): 9.373 ± 0.05 h; onset of ureolytic pH increase ([3]; 0.351 mM): 9.697 ± 0.0183 h; final pH-related absorbance ([4]; 0.0035 mM): 0.217 ± 0.0022; final pH-related absorbance ([4]; 0.0351 mM): 0.218 ± 0.0017; final pH-related absorbance ([4]; 0.351 mM): 0.219 ± 0.0049
9 | O=C(O)CNc1ccc(O)cc1 [N-(4-Hydroxyphenyl)glycine] | – | – | – | – | – | – | – | – | – | – | – | – | rate of pH ([1]; 0.001 mM): 2.079 ± 0.0047; rate of pH ([1]; 0.011 mM): 2.81 ± 0.3; rate of pH ([1]; 0.112 mM): 0.632 ± 0.057; final OD630 ([2]; 0.001 mM): 0.438 ± 0.009; final OD630 ([2]; 0.011 mM): 0.357 ± 0.005; final OD630 ([2]; 0.112 mM): 0; onset of ureolytic pH increase ([3]; 0.001 mM): 9.527 ± 0.0183 h; onset of ureolytic pH increase ([3]; 0.011 mM): 13.5 ± 0.25 h; onset of ureolytic pH increase ([3]; 0.112 mM): 0 min; final pH-related absorbance ([4]; 0.001 mM): 0.183 ± 0.003; final pH-related absorbance ([4]; 0.011 mM): 0.107 ± 0.013; final pH-related absorbance ([4]; 0.112 mM): 0.331 ± 0.042
10 | O=C1C=CC(=O)N1c1ccccc1 [N-phenylmaleimide] | – | – | – | – | – | – | – | – | – | – | – | – | rate of pH ([1]; 0.039 mM): 1.67 ± 0.056; rate of pH ([1]; 0.39 mM): 0; rate of pH ([1]; 3.9 mM): 0; final OD630 ([2]; 0.039 mM): 0.448 ± 0.07; final OD630 ([2]; 0.39 mM): 0; final OD630 ([2]; 3.9 mM): 0; onset of ureolytic pH increase ([3]; 0.039 mM): 13 ± 0.155 h; onset of ureolytic pH increase ([3]; 0.39 mM): > 25 h; onset of ureolytic pH increase ([3]; 3.9 mM): > 25 h; final pH-related absorbance ([4]; 0.039 mM): 0.136 ± 0.0029; final pH-related absorbance ([4]; 0.39 mM): 0; final pH-related absorbance ([4]; 3.9 mM): 0
